Experimental findings from BindingDB's records for PubMed 35315650 (Korea Research Institute of Chemical Technology, 2022) are described below.

This experiment in a line: Agonist activity at STING in human wild-type THP1-Dual cells co-expressing ISRE reporter assessed as IRF-mediated immune response incubated for 24 hrs by QUANTI Luc based microplate reader method.
On to `CCn1nc(C)cc1C(=O)/N=c1\[nH]c2cc(C(N)=O)ccc2n1CCCCn1/c(=N/C(=O)c2cc(C)nn2CC)[nH]c2cc(C(N)=O)ccc21`, for which the EC50 (as a rule, the midpoint of the concentration-response curve) was found to be 1.23 µM.

Take `CCn1nc(C)cc1C(=O)Nc1nc2cc(C(N)=O)cc(OC)c2n1CCCCNC(=O)OC(C)(C)C`: the EC50 came to 0.804 µM.

As to `CCn1nc(C)cc1C(=O)Nc1nc2cc(C(N)=O)cc(OC)c2n1C/C=C/Cn1c(NC(=O)c2cc(C)nn2CC)nc2cc(C(N)=O)cc(OCCCNC(=O)OC(C)(C)C)c21`, the EC50 stood at 0.000354 µM.

On to `CCn1nc(C)cc1C(=O)Nc1nc2cc(C(N)=O)cc(OCCCNC(=O)OC(C)(C)C)c2n1C`, for which the EC50 stood at 1.66 µM.

For the molecule `CCn1nc(C)cc1C(=O)Nc1nc2cc(C(N)=O)ccc2n1CCCCCNC(=O)OC(C)(C)C`, the EC50 was found to be 1.69 µM.

Turning to `CCn1nc(C)cc1C(=O)NCCCOc1cc(C(N)=O)cc2nc(NC(=O)c3cc(C)nn3CC)n(C/C=C/Cn3c(NC(=O)c4cc(C)nn4CC)nc4cc(C(N)=O)cc(OC)c43)c12`, the EC50 amounted to 4e-06 µM.

In the case of `CCn1nc(C)cc1C(=O)Nc1nc2cc(C(N)=O)cc(OC)c2n1C/C=C/CNC(=O)OC(C)(C)C`, the concentration for a half-maximal effect (EC50) was determined as 4.6 µM.

As for `CCn1nc(C)cc1C(=O)NCCCOc1cc(C(N)=O)cc2nc(NC(=O)c3cc(C)nn3CC)n(C)c12`, the EC50 amounted to 6.22 µM.

For `CCn1nc(C)cc1C(=O)Nc1nc2cc(C(N)=O)ccc2n1CCCCNC(=O)OC(C)(C)C`, the concentration for a half-maximal effect (EC50) amounted to 6.55 µM.

In the case of `CCn1nc(C)cc1C(=O)NCCCCn1c(NC(=O)c2cc(C)nn2CC)nc2cc(C(N)=O)ccc21`, the EC50 was 9.12 µM.

As for `Cn1cc(C(=O)Nc2nc3cc(C(N)=O)ccc3n2CCCCn2c(NC(=O)c3cn(C)nc3C(F)(F)F)nc3cc(C(N)=O)ccc32)c(C(F)(F)F)n1`, the EC50 amounted to 17.6 µM.

With `CCn1nc(C)cc1C(=O)Nc1nc2cc(C(N)=O)ccc2n1CCCCNC(=O)c1ccccc1`, the EC50 was 28.6 µM.

In the case of `CCn1nc(C)cc1C(=O)Nc1nc2cc(C(N)=O)cc(OCCCN)c2n1C`, the half-maximal effective concentration (EC50) came to 29.8 µM.

Turning to `CCn1nc(C)cc1C(=O)Nc1nc2cc(C(N)=O)ccc2n1CCCCNC(=O)c1cc(C)nn1C`, the EC50 came to 30.1 µM.

As for `CCn1nc(C)cc1C(=O)NCCCn1c(NC(=O)c2cc(C)nn2CC)nc2cc(C(N)=O)ccc21`, the half-maximal effective concentration (EC50) was found to be 39.1 µM.

For `CCn1nc(C)cc1C(=O)Nc1nc2cc(C(N)=O)ccc2n1CCCNC(=O)OC(C)(C)C`, the EC50 was 48.6 µM.

For `CCn1nc(C)cc1C(=O)Nc1nc2cc(C(N)=O)ccc2n1CCCCNC(=O)C(C)(C)C`, the EC50 was found to be 51.1 µM.

Regarding `CCn1nc(C)cc1C(=O)Nc1nc2cc(C(N)=O)cc(OC)c2n1C/C=C/Cn1c(NC(=O)c2cc(C)nn2CC)nc2cc(C(N)=O)cc(OCCCN)c21`, the EC50 is 0.00162 µM.
